Assay results published in US7723056B1, “Particles” (The University of Manchester, priority 1997, dated 2010).
Residues, ends and D or L forms follow the SMILES beside them. *: point of attachment. Myristoyl = CCCCCCCCCCCCCC(=O)*

System: erythrocytes
Assay: Haemoglobin assay of erythrocyte lysis
Format: cell-based, rats
Settings: rat erythrocytes, no bacteria; haemoglobin at 578 nm; 100% = Triton X100
Experimental: Fresh rats blood was obtained with sodium heparin added to prevent clotting. Following centrifugation at 600 g for 10 mins and discarding of the supernatant, the pelleted erythrocytes were resuspended and washed three times in isotonic sucrose-glucose phosphate buffer (0.2M sucrose, 0.1M glucose 10 mM sodium phosphate, pH 7.3). Erythrocytes were used on the same day.
Leakage of haemoglobin from the erythrocytes (50 μl aliquots) was assayed spectrophotometrically at 578 nm against isotonic sucrose glucose phosphate buffer. Percentage lysis of the erythrocytes was established by construction of a standard curve. The supernatant from the centrifuged cells (3.2) represented 0% whereas 100% lysis obtained by incubation with 20 ul 10% v/v Triton X100 for 10 minutes.
Cultures were centrifuged at 600 g for 10 minutes and the supernatant examined spectrophotometrically as described above to assess erythrocyte lysis. In the presence of particles (but no bacteria) erythrocyte lysis varied between 0.88 and 0.61% with a mean of 0.73%. Addition of M-GALA alone to erythrocytes produced a lysis of 0.31%. No lysis occurred for erythrocytes left in buffer only.

CCCCCCCCCCCCCC(=O)N[C@@H](Cc1c[nH]c2ccccc12)C(=O)N[C@@H](CCC(=O)O)C(=O)N[C@@H](C)C(=O)N[C@@H](C)C(=O)N[C@@H](CC(C)C)C(=O)N[C@@H](C)C(=O)N[C@@H](CCC(=O)O)C(=O)N[C@@H](C)C(=O)N[C@@H](CC(C)C)C(=O)N[C@@H](C)C(=O)N[C@@H](CCC(=O)O)C(=O)N[C@@H](C)C(=O)N[C@@H](CC(C)C)C(=O)N[C@@H](C)C(=O)N[C@@H](CCC(=O)O)C(=O)N[C@@H](Cc1c[nH]cn1)C(=O)N[C@@H](CC(C)C)C(=O)N[C@@H](C)C(=O)N[C@@H](CCC(=O)O)C(=O)N[C@@H](C)C(=O)N[C@@H](CC(C)C)C(=O)N[C@@H](C)C(=O)N[C@@H](CCC(=O)O)C(=O)N[C@@H](C)C(=O)N[C@@H](CC(C)C)C(=O)N[C@@H](CCC(=O)O)C(=O)N[C@@H](C)C(=O)N[C@@H](CC(C)C)C(=O)N[C@@H](C)C(=O)N[C@@H](C)C(=O)O [M-GALA, N, Myristic-GALA] (Myristoyl-WEAALAEALAEALAEHLAEALAEALEALAA-OH)
erythrocyte lysis: 0.31%
